Reference: the NIST ThermoML archive (doi:10.1016/j.jct.2014.07.018)
“And” between values parts separate entries of the source, which are not always exact repeats. Equal entries are not always repeated.

Test: molar heat capacity at constant pressure
Details: 101.33 kPa, Vacuum adiabatic calorimetry

CCC[n+]1ccn(C)c1.[Br-] [1-methyl-3-propylimidazolium bromide]
molar heat capacity at constant pressure
Details | Crystal 2 | Glass
5 K | 0.294 J/K/mol | 1 J/K/mol
5.52 K | 0.401 J/K/mol | –
5.87 K | 0.492 J/K/mol | –
6.21 K | 0.596 J/K/mol | –
6.59 K | 0.729 J/K/mol | –
6.61 K | – | 2.26 J/K/mol
6.94 K | – | 2.56 J/K/mol
6.97 K | 0.883 J/K/mol | –
7.33 K | – | 2.953 J/K/mol
7.35 K | 1.057 J/K/mol | –
7.73 K | 1.253 J/K/mol | –
7.74 K | – | 3.376 J/K/mol
8.12 K | 1.472 J/K/mol | –
8.14 K | – | 3.817 J/K/mol
8.51 K | 1.709 J/K/mol | –
8.55 K | – | 4.303 J/K/mol
8.89 K | 1.969 J/K/mol | –
8.96 K | – | 4.799 J/K/mol
9.28 K | 2.25 J/K/mol | –
9.37 K | – | 5.312 J/K/mol
9.68 K | 2.56 J/K/mol | –
9.78 K | – | 5.854 J/K/mol
10 K | 2.83 J/K/mol | 6.16 J/K/mol
10.07 K | 2.896 J/K/mol | –
10.19 K | – | 6.42 J/K/mol
10.57 K | 3.349 J/K/mol | –
10.71 K | – | 7.156 J/K/mol
11.17 K | 3.934 J/K/mol | –
11.34 K | – | 8.069 J/K/mol
11.78 K | 4.563 J/K/mol | –
11.96 K | – | 9.014 J/K/mol
12.39 K | 5.251 J/K/mol | –
12.59 K | – | 10.01 J/K/mol
12.76 K | – | 10.27 J/K/mol
13 K | 5.972 J/K/mol | –
13.23 K | – | 11.02 J/K/mol
13.27 K | – | 11.09 J/K/mol
13.62 K | 6.746 J/K/mol | –
13.86 K | – | 12.06 J/K/mol
13.9 K | – | 12.12 J/K/mol
14.24 K | 7.548 J/K/mol | –
14.5 K | – | 13.11 J/K/mol
14.53 K | – | 13.18 J/K/mol
14.85 K | 8.382 J/K/mol | –
15 K | 8.58 J/K/mol | 13.96 J/K/mol
15.17 K | – | 14.27 J/K/mol
15.58 K | 9.404 J/K/mol | –
15.96 K | – | 15.61 J/K/mol
16.42 K | 10.63 J/K/mol | –
16.9 K | – | 17.24 J/K/mol
17.26 K | 11.9 J/K/mol | –
17.83 K | – | 18.9 J/K/mol
18.09 K | 13.21 J/K/mol | –
18.77 K | – | 20.57 J/K/mol
18.93 K | 14.56 J/K/mol | –
19.7 K | – | 22.25 J/K/mol
19.77 K | 15.94 J/K/mol | –
20 K | 16.31 J/K/mol | 22.8 J/K/mol
20.91 K | 17.83 J/K/mol | –
20.95 K | – | 24.53 J/K/mol
22.33 K | 20.27 J/K/mol | –
22.51 K | – | 27.36 J/K/mol
23.77 K | 22.77 J/K/mol | –
24.09 K | – | 30.19 J/K/mol
25 K | 24.9 J/K/mol | 31.8 J/K/mol
25.2 K | 25.25 J/K/mol | –
25.66 K | – | 32.96 J/K/mol
26.63 K | 27.75 J/K/mol | –
27.23 K | – | 35.71 J/K/mol
28.07 K | 30.25 J/K/mol | –
28.81 K | – | 38.42 J/K/mol
29.52 K | 32.71 J/K/mol | –
30 K | 33.56 J/K/mol | 40.46 J/K/mol
30.4 K | – | 41.1 J/K/mol
31.17 K | 35.56 J/K/mol | –
32.13 K | – | 43.97 J/K/mol
33.03 K | 38.66 J/K/mol | –
34.01 K | – | 46.95 J/K/mol
34.89 K | 41.68 J/K/mol | –
35 K | 41.84 J/K/mol | 48.45 J/K/mol
35.9 K | – | 49.88 J/K/mol
36.76 K | 44.57 J/K/mol | –
37.79 K | – | 52.63 J/K/mol
38.63 K | 47.38 J/K/mol | –
39.67 K | – | 55.27 J/K/mol
40 K | 49.44 J/K/mol | 55.78 J/K/mol
40.49 K | 50.15 J/K/mol | –
41.76 K | – | 58.17 J/K/mol
42.5 K | 53 J/K/mol | –
44.05 K | – | 61.22 J/K/mol
44.67 K | 55.99 J/K/mol | –
45 K | 56.45 J/K/mol | 62.48 J/K/mol
46.42 K | – | 64.28 J/K/mol
46.85 K | 58.9 J/K/mol | –
48.69 K | – | 67.11 J/K/mol
49.03 K | 61.73 J/K/mol | –
50 K | 62.88 J/K/mol | 68.62 J/K/mol
50.77 K | – | 69.55 J/K/mol
51.21 K | 64.4 J/K/mol | –
52.86 K | – | 71.87 J/K/mol
53.39 K | 66.92 J/K/mol | –
54.95 K | – | 74.14 J/K/mol
55.57 K | 69.38 J/K/mol | –
57.04 K | – | 76.42 J/K/mol
57.75 K | 71.78 J/K/mol | –
59.13 K | – | 78.63 J/K/mol
59.93 K | 74.14 J/K/mol | –
60 K | 74.22 J/K/mol | 79.52 J/K/mol
61.23 K | – | 80.83 J/K/mol
62.13 K | 76.42 J/K/mol | –
63.32 K | – | 82.92 J/K/mol
64.33 K | 78.63 J/K/mol | –
65.42 K | – | 84.99 J/K/mol
66.53 K | 80.71 J/K/mol | –
67.53 K | – | 86.98 J/K/mol
68.72 K | 82.68 J/K/mol | –
69.62 K | – | 88.87 J/K/mol
70 K | 83.84 J/K/mol | 89.28 J/K/mol
70.92 K | 84.56 J/K/mol | –
71.72 K | – | 90.74 J/K/mol
73.18 K | 86.57 J/K/mol | –
73.83 K | – | 92.54 J/K/mol
75.5 K | 88.58 J/K/mol | –
75.93 K | – | 94.45 J/K/mol
77.81 K | 90.59 J/K/mol | –
78.04 K | – | 96.34 J/K/mol
78.3 K | 90.96 J/K/mol | –
78.68 K | 91.25 J/K/mol | –
79.18 K | – | 97.3 J/K/mol
80 K | 92.3 J/K/mol | 97.87 J/K/mol
80.13 K | 92.58 J/K/mol | –
80.17 K | – | 98.2 J/K/mol
80.36 K | 92.62 J/K/mol | –
80.94 K | 93.01 J/K/mol | –
81.21 K | – | 98.9 J/K/mol
82.27 K | 94.04 J/K/mol | –
82.29 K | – | 99.76 J/K/mol
82.46 K | 94.26 J/K/mol | –
82.87 K | 94.47 J/K/mol | –
83.14 K | – | 100.3 J/K/mol
84.2 K | 95.47 J/K/mol | –
84.42 K | – | 101.2 J/K/mol
84.8 K | 95.84 J/K/mol and 95.9 J/K/mol | –
85.07 K | – | 101.7 J/K/mol
86.13 K | 96.85 J/K/mol | –
86.73 K | 97.28 J/K/mol | –
87.01 K | – | 103.1 J/K/mol
88.08 K | 98.24 J/K/mol | –
88.67 K | 98.67 J/K/mol | –
88.94 K | – | 104.6 J/K/mol
90 K | 99.64 J/K/mol | 105.4 J/K/mol
90.04 K | 99.66 J/K/mol | –
90.6 K | 100 J/K/mol | –
90.88 K | – | 106 J/K/mol
92.01 K | 101.1 J/K/mol | –
92.54 K | 101.4 J/K/mol | –
92.82 K | – | 107.4 J/K/mol
93.99 K | 102.5 J/K/mol | –
94.48 K | 102.8 J/K/mol | –
94.77 K | – | 108.7 J/K/mol
95.98 K | 103.8 J/K/mol | –
96.43 K | 104.1 J/K/mol | –
96.72 K | – | 110.1 J/K/mol
97.97 K | 105.1 J/K/mol | –
98.38 K | 105.4 J/K/mol | –
98.66 K | – | 111.4 J/K/mol
99.98 K | 106.5 J/K/mol | –
100 K | 106.4 J/K/mol | 112.3 J/K/mol
100.34 K | 106.7 J/K/mol | –
100.62 K | – | 112.7 J/K/mol
101.99 K | 107.7 J/K/mol | –
102.29 K | 107.9 J/K/mol | –
102.57 K | – | 114 J/K/mol
104.01 K | 109 J/K/mol | –
104.25 K | 109.1 J/K/mol | –
104.53 K | – | 115.3 J/K/mol
106.04 K | 110.2 J/K/mol | –
106.21 K | 110.3 J/K/mol | –
106.49 K | – | 116.5 J/K/mol
108.08 K | 111.5 J/K/mol | –
108.17 K | 111.6 J/K/mol | –
108.45 K | – | 117.8 J/K/mol
110 K | 112.6 J/K/mol | 118.7 J/K/mol
110.12 K | 112.7 J/K/mol | –
110.14 K | 112.7 J/K/mol | –
110.41 K | – | 119 J/K/mol
112.1 K | 113.9 J/K/mol | –
112.17 K | 113.9 J/K/mol | –
112.38 K | – | 120.2 J/K/mol
114.07 K | 115 J/K/mol | –
114.22 K | 115.1 J/K/mol | –
114.35 K | – | 121.4 J/K/mol
116.04 K | 116.2 J/K/mol | –
116.28 K | 116.3 J/K/mol | –
116.32 K | – | 122.6 J/K/mol
118.01 K | 117.3 J/K/mol | –
118.29 K | – | 123.8 J/K/mol
118.34 K | 117.5 J/K/mol | –
119.98 K | 118.4 J/K/mol | –
120 K | 118.4 J/K/mol | 124.8 J/K/mol
120.27 K | – | 124.9 J/K/mol
120.41 K | 118.7 J/K/mol | –
121.96 K | 119.4 J/K/mol | –
122.24 K | – | 126.1 J/K/mol
122.48 K | 119.8 J/K/mol | –
123.94 K | 120.6 J/K/mol | –
124.22 K | – | 127.2 J/K/mol
124.56 K | 121 J/K/mol | –
125.91 K | 121.7 J/K/mol | –
126.2 K | – | 128.4 J/K/mol
126.63 K | 122.1 J/K/mol | –
127.9 K | 122.8 J/K/mol | –
128.18 K | – | 129.5 J/K/mol
128.72 K | 123.2 J/K/mol | –
129.88 K | 123.8 J/K/mol | –
130 K | 123.9 J/K/mol | 130.6 J/K/mol
130.17 K | – | 130.7 J/K/mol
130.8 K | 124.4 J/K/mol | –
131.86 K | 124.9 J/K/mol | –
132.15 K | – | 131.8 J/K/mol
132.89 K | 125.5 J/K/mol | –
133.84 K | 126 J/K/mol | –
134.14 K | – | 132.9 J/K/mol
134.99 K | 126.6 J/K/mol | –
135.84 K | 127 J/K/mol | –
136.13 K | – | 134 J/K/mol
137.08 K | 127.7 J/K/mol | –
137.83 K | 128 J/K/mol | –
138.12 K | – | 135.2 J/K/mol
139.18 K | 128.7 J/K/mol | –
139.83 K | 129.1 J/K/mol | –
140 K | 129.2 J/K/mol | 136.2 J/K/mol
140.12 K | – | 136.3 J/K/mol
141.28 K | 129.8 J/K/mol | –
141.83 K | 130.1 J/K/mol | –
142.11 K | – | 137.4 J/K/mol
143.39 K | 130.9 J/K/mol | –
143.83 K | 131.1 J/K/mol | –
144.11 K | – | 138.5 J/K/mol
145.49 K | 132 J/K/mol | –
145.83 K | 132.1 J/K/mol | –
146.11 K | – | 139.7 J/K/mol
147.6 K | 133 J/K/mol | –
